Converted amounts (≈) assume the structure as drawn.
Key:
[1] = Solubility in pH 6.5 aqueous phosphate buffer (Chemical Method 1, PDS solubility); assay type: physicochemical; conditions: thermodynamic from solid; saturated solution in pH 6.5 aqueous phosphate buffer, 5% glyme, UV-visible absorbance
Method: Solubility of a test compound of the present invention refers to solubility of the compound in a solvent mixture containing ethylene glycol dimethylether (“glyme”) and pH 6.5 aqueous phosphate buffer. The solubility was determined by measuring ultraviolet-visible absorbance of a saturated solution of the compound and comparing the absorbance value to absorbance values obtained for four standard solutions of the compound having known concentrations plotted on a 4-point ultraviolet-visible standard curve.
First, a saturated solution of the test compound of the present invention was prepared by adding from about 2- to about 5-mg of the compound to a 96-well plate and adding a volume of pH 6.5 aqueous phosphate buffer, sonicating the mixture for about 10 minutes, and then allowing it to equilibrate overnight (typically 12 to 24 hours). The saturated solution was visually inspected to ensure the presence of particles, and then filtered to give a filtrate of the saturated solution. The filtrate of the saturated solution and a blank (pH 6.5 aqueous phosphate buffer containing no test compound) were then transferred into separate wells in a 96-well UV-transparent disposable plate, and a small amount of glyme was added to each well to give 5% glyme concentration per well.
Standard solutions of the test compound were prepared by dissolving a known amount of the test compound in a known volume of 75/25 volume/volume (“v/v”) glyme/water, and diluting this solution into four different concentrations in 96-well plates with additional 75/25 v/v glyme/water. Then, aliquots from each of the four standard solutions were also transferred to the 96-well UV-transparent disposable plate containing pH 6.5 aqueous phosphate buffer until the glyme concentration in each well was 5%.
The prepared 96-well plate was transferred to a 96-well ultraviolet-visible plate reader, and the wells were scanned over wavelengths of from 220 nm to 350 nm with a step size of 2 nm. The ultraviolet-visible data (i.e., data generated at the same wavelength) were electronically exported to a spreadsheet and absorbance data for the filtrate of the saturated solution measured at one wavelength (i.e., the data that had the best linear fit as calculated by the highest regression coefficient, typically 0.98 or higher) and the corresponding standards absorbance data measured at the same wavelength were plotted as a standard absorbance-concentration curve based on the Lambert-Beer law. The solubility (i.e., saturation concentration) was then back calculated by comparing the absorbance of the filtrate of the saturated solution to the absorbance of the standard solutions of known concentrations at the same wavelength.

[2] = biological target: MMP-13 catalytic domain (MMP-13CD) (Homo sapiens, UniProt P45452); assay: Thiopeptolide hydrolysis inhibition assay, MMP-13 catalytic domain; assay type: biochemical; conditions: thiopeptolide substrate, HEPES pH 7.0, 22° C.
Source text: (§1) In general, the MMP inhibition assays measure the amount by which a test compound reduces the hydrolysis of a thiopeptolide substrate catalyzed by a matrix metalloproteinase enzyme. Such assays are described in detail by Ye et al., in Biochemistry, 1992;31(45):11231-11235, which is incorporated herein by reference.
Some of the particular methods described below use the catalytic domain of the MMP-13 enzyme, namely matrix metalloproteinase-13 catalytic domain (“MMP-13CD”), rather than the corresponding full-length enzyme, MMP-13. It has been shown previously by Ye Qi-Zhuang, Hupe D., and Johnson L. (Current Medicinal Chemistry, 1996;3:407418) that inhibitor activity against a catalytic domain of an MMP is predictive of the inhibitor activity against the respective full-length MMP enzyme.
(§2) Thiopeptolide substrates show virtually no decomposition or hydrolysis at or below neutral pH in the absence of a matrix metalloproteinase enzyme. A typical thiopeptolide substrate commonly utilized for assays is Ac-Pro-Leu-Gly-thioester-Leu-Leu-Gly-OEt. A 100 μL assay mixture will contain 50 mM of N-2-hydroxyethylpiperazine-N′-2-ethanesulfonic acid buffer (“HEPES,” pH 7.0), 10 mM CaCl2, 100 μM thiopeptolide substrate, and 1 mM 5,5′-dithio-bis-(2-nitro-benzoic acid) (DTNB). The thiopeptolide substrate concentration may be varied, for example from 10 to 800 μM to obtain Km and Kcat values. The change in absorbance at 405 nm is monitored on a Thermo Max microplate reader (molecular Devices, Menlo Park, Calif.) at room temperature (22° C.). The calculation of the amount of hydrolysis of the thiopeptolide substrate is based on E412=13600 M^−1 cm^−1 for the DTNB-derived product 3-carboxy-4-nitrothiophenoxide. Assays are carried out with and without matrix metalloproteinase inhibitor compounds, and the amount of hydrolysis is compared for a determination of inhibitory activity of the test compounds.
(§3) Test compounds were evaluated at various concentrations in order to determine their respective IC50 values, the micromolar concentration of compound required to cause a 50% inhibition of catalytic activity of the respective enzyme.

MMP-7 full-length = biological target: T1, MMP-7 full-length (Homo sapiens, UniProt P09237); assay: Thiopeptolide hydrolysis inhibition assay, MMP-7 full-length; assay type: biochemical; conditions: thiopeptolide substrate; read-out: MMP-7FL IC50
T1 construct: MMP-7 full-length
T1 sequence (P09237 95-267): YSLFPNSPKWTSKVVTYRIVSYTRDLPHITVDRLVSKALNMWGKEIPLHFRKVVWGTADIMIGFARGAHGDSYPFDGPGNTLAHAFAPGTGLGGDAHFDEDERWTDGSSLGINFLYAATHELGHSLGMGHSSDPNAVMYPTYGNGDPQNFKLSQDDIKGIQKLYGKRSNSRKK
Source text: as §1, §2, §3
(§4) The test described above for the inhibition of MMP-13 may also be adapted and used to determine the ability of the compounds of formula (I) to inhibit the matrix metalloproteases MMP-1, MMP-2, MMP-3, MMP-7, MMP-9, MMP-12, MMP-14, and MMP-17.
(§5) Certain compounds of formula (I) have been assayed with MMP-1 full-length, MMP-2 full-length, MMP-3 catalytic domain, MMP-7 full-length, MMP-8 catalytic domain, MMP-9 full-length, and MMP-12 catalytic domain.

MMP-8 catalytic domain = biological target: T2, MMP-8 catalytic domain (Homo sapiens, UniProt P22894); assay: Thiopeptolide hydrolysis inhibition assay, MMP-8 catalytic domain; assay type: biochemical; conditions: thiopeptolide substrate; read-out: MMP-8CD IC50
T2 construct: MMP-8 catalytic domain
Source text: as §1, §2, §3, §5

MMP-12 catalytic domain = biological target: T3, MMP-12 catalytic domain (Homo sapiens, UniProt P39900); assay: Thiopeptolide hydrolysis inhibition assay, MMP-12 catalytic domain; assay type: biochemical; conditions: thiopeptolide substrate; read-out: MMP-12CD IC50
T3 construct: MMP-12 catalytic domain
Source text: as §1, §2, §3, §4, §5

MMP-3 catalytic domain = biological target: T4, MMP-3 catalytic domain (Homo sapiens, UniProt P08254); assay: Thiopeptolide hydrolysis inhibition assay, MMP-3 catalytic domain; assay type: biochemical; conditions: thiopeptolide substrate, MES pH 6.0; read-out: MMP-3CD IC50
T4 construct: MMP-3 catalytic domain
Source text: as §1, §2, §3
The assay buffer used with MMP-3CD was 50 mM N-morpholinoethane sulfonate (“MES”) at pH 6.0 rather than the HEPES buffer at pH 7.0 described above.
The test described above for the inhibition of MMP-13 may also be adapted and used to determine the ability of the compounds of formula (I) to inhibit the matrix metalloproteases MMP-1, MMP-2, MMP-3, MMP-7, MMP-9, MMP-12, MMP-14, and MMP-17. […]

MMP-9 full-length = biological target: T5, MMP-9 full-length (Homo sapiens, UniProt P14780); assay: Thiopeptolide hydrolysis inhibition assay, MMP-9 full-length; assay type: biochemical; conditions: thiopeptolide substrate; read-out: MMP-9FL IC50
T5 construct: MMP-9 full-length
Source text: as §1, §2, §3, §4, §5

MMP-1 full-length = biological target: T6, MMP-1 full-length (Homo sapiens, UniProt P03956); assay: Thiopeptolide hydrolysis inhibition assay, MMP-1 full-length; assay type: biochemical; conditions: thiopeptolide substrate; read-out: MMP-1FL IC50
T6 construct: have been assayed with MMP-1 full-length
T6 sequence (P03956 100-469): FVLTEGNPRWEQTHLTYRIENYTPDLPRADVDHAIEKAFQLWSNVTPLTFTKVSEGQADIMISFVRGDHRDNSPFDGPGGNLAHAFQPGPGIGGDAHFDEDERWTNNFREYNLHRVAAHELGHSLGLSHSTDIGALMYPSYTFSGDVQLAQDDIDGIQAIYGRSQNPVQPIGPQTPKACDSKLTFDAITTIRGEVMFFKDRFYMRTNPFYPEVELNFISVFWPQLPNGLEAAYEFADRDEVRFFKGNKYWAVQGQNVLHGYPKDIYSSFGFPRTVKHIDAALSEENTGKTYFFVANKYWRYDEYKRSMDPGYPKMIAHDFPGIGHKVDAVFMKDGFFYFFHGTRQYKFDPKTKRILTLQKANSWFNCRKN
Source text: as §1, §2, §3, §4, §5

MMP-2 full-length = biological target: T7, MMP-2 full-length (Homo sapiens, UniProt P08253); assay: Thiopeptolide hydrolysis inhibition assay, MMP-2 full-length; assay type: biochemical; conditions: thiopeptolide substrate; read-out: MMP-2FL IC50
T7 construct: MMP-2 full-length
T7 sequence (P08253 110-660): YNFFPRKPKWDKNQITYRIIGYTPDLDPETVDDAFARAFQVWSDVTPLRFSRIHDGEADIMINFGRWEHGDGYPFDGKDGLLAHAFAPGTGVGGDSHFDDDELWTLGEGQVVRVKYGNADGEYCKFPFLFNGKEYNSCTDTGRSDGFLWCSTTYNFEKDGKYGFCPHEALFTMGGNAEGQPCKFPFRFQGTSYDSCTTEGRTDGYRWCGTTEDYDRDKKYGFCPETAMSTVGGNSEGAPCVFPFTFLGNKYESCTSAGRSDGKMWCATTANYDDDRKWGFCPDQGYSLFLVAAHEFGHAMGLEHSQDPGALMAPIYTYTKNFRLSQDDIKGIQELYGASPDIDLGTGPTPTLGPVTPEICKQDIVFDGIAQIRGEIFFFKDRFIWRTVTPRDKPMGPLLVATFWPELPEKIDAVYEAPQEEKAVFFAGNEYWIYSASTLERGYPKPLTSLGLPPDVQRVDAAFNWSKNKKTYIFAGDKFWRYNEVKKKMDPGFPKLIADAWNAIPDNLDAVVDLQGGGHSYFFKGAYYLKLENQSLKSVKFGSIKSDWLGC
Source text: as §1, §2, §3, §4, §5

T4 sequence (P08254 100-272 limits assumed, species assumed): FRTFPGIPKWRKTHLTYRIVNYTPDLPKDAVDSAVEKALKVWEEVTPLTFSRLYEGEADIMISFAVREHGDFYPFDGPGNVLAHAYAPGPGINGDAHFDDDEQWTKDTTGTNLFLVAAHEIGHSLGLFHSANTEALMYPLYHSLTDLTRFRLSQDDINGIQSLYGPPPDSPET
T3 sequence (P39900 106-263 limits assumed, species assumed): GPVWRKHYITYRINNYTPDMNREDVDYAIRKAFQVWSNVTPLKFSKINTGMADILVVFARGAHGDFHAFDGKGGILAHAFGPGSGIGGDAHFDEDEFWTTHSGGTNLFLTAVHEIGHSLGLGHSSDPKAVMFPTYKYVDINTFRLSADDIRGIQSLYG
T2 sequence (P22894 100-262 limits assumed, species assumed): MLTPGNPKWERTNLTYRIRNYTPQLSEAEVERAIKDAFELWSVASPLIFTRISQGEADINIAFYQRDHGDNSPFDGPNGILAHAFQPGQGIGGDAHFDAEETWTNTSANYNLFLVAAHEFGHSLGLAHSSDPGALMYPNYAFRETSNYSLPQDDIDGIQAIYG
T5 sequence (P14780 94-707, species assumed): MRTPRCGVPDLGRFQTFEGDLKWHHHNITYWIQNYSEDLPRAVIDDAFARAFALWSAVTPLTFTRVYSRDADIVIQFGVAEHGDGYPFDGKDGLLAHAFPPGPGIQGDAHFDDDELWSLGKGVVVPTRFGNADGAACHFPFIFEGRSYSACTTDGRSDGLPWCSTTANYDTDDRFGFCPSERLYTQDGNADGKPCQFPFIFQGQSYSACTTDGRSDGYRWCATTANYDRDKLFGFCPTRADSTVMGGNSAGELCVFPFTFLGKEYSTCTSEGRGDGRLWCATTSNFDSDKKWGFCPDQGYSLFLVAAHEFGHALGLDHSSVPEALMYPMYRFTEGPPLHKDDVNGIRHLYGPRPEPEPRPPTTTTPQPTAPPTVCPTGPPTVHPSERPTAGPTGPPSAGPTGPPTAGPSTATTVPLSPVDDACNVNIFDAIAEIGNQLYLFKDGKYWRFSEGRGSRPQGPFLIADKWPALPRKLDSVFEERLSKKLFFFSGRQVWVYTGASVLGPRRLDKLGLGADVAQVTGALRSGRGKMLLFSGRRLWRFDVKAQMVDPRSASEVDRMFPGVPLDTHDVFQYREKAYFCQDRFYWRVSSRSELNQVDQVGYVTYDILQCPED

Cc1cc(-c2nnn(CC(=O)N3CCCC3C(=O)O)n2)cc(C(=O)NCc2ccc(F)cc2)n1 (stereo not drawn) [Example 3]
solubility [1]: 1200 µg/mL (≈ 2570 µM) | IC50 [2]: 1.5 µM

Cc1cc(-c2nnn(CC(=O)NCCC(=O)O)n2)cc(C(=O)NCc2ccc(F)cc2)n1 [Example 2, 3-(2-{5-[2-(4-Fluoro-benzylcarbamoyl)-6-methyl-pyridin-4-yl]-tetrazol-2-yl}-acetylamino)-propionic acid]
solubility [1]: 220 µg/mL (≈ 498 µM) | IC50 (MMP-7 full-length): > 100 µM | IC50 (MMP-8 catalytic domain): > 100 µM | IC50 [2]: 0.039 µM | IC50 (MMP-12 catalytic domain): > 100 µM | IC50 (MMP-3 catalytic domain): > 100 µM | IC50 (MMP-9 full-length): > 100 µM | IC50 (MMP-1 full-length): > 100 µM | IC50 (MMP-2 full-length): 75 µM

Cc1cc(-c2nnn(CC(=O)NCC(=O)O)n2)cc(C(=O)NCc2ccc(F)cc2)n1 [Example 1, (2-{5-[2-(4-fluoro-benzylcarbamoyl)-6-methyl-pyridin-4-yl]-tetrazol-2-yl}-acetylamino)-acetic acid]
solubility [1]: 580 µg/mL (≈ 1360 µM) | IC50 (MMP-7 full-length): > 100 µM | IC50 (MMP-8 catalytic domain): > 100 µM | IC50 [2]: 0.041 µM | IC50 (MMP-12 catalytic domain): > 100 µM | IC50 (MMP-3 catalytic domain): > 100 µM | IC50 (MMP-9 full-length): > 100 µM | IC50 (MMP-1 full-length): > 100 µM | IC50 (MMP-2 full-length): > 100 µM

O=C(O)C1CCCN(CCCn2nnc(-c3cccc(C#CCc4ccc(F)cc4)c3)n2)C1 (stereo not drawn) [Example 4]
IC50 (MMP-7 full-length): > 100 µM | IC50 (MMP-8 catalytic domain): > 100 µM | IC50 [2]: 5.2 µM | IC50 (MMP-12 catalytic domain): > 100 µM | IC50 (MMP-3 catalytic domain): > 100 µM | IC50 (MMP-9 full-length): > 100 µM | IC50 (MMP-1 full-length): > 100 µM | IC50 (MMP-2 full-length): > 100 µM

Cc1cc(-c2nnn(CC(=O)O)n2)cc(C(=O)NCc2ccc(F)cc2)n1 [Example I2, {5-[2-(4-fluoro-benzylcarbamoyl)-6-methyl-pyridin-4-yl]-tetrazol-2-yl}-acetic acid]
solubility [1]: 880 µg/mL (≈ 2380 µM) | IC50 [2]: 4.5 µM

From US20090137637A1, “Tetrazolyl-Methylene Amino Acid Derivatives” (PFIZER INC., priority 2005, published 2009)
